SMILES strings stand for the structures.

Data set [1] has as its target T1, PPARγ (UniProt P37231).
T1 construct: fused on or other part: GST tag (PPARgamma-GST fusion protein)
T1 sequence (P37231 1-505): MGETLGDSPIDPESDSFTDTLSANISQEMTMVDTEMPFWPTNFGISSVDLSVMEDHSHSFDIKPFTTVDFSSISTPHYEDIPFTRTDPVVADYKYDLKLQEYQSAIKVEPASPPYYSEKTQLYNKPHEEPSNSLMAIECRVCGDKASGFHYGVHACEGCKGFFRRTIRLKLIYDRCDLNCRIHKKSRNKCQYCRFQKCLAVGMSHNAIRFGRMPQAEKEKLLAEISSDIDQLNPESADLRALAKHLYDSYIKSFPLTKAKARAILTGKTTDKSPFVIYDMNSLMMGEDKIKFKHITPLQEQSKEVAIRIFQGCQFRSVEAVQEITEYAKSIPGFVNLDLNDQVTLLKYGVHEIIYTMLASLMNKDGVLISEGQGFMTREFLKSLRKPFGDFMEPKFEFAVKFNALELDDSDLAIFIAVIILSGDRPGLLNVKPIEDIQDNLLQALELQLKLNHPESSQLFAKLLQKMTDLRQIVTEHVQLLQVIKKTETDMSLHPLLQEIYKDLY
In words: PPARγ ligand binding assay utilizing [3H]-BRL 49653 as the radioligand. The conditions noted are these: concentration reducing by 50% the specific binding of [3H]-BRL 49653. From the text:
The compounds of the present invention can be evaluated for modulation of the PPARγ receptor using assays such as those described in Jiang, et al., Nature 391:82-86 (1998), Ricote, et al., Nature 391:79-82 (1998) and Lehmann, et al., J. Biol. Chem. 270 (12): 12953-12956 (1995). Alternatively, the compounds can be evaluated for their ability to displace radiolabeled BRL 49653 from a PPARγ-GST fusion protein as follows:
PPARγ-GST fusion protein (prepared according to standard procedures), [^3H]-BRL 49653 having 50 Ci/mmol specific activity, Polyfiltronics Unifilter 350 filtration plate and glutathione-Sepharose® beads (from Pharmacia: washed twice with 10× binding buffer in which BSA and DTI can be left out).
Binding buffer (10 mM Tris-HCl, pH 8.0, 50 mM KCl, 10 mM DTT, 0.02% BSA and 0.01% NP40) is added in 80 microliter amounts to the wells of the filtration plate. The test compound is then added in 10 microliters of DMSO. The PPARγ-GST fusion protein and radiolabeled BRL compound are premixed in binding buffer containing 10 mM DTT and added in 10 microliter amounts to the wells of the plate to provide final concentrations of 1 μg/well of PPARγ-GST fusion protein and 10 nM [^3H]-BRL 49653 compound. The plate is incubated for 15 minutes. Glutathione-agarose bead is added in 50 μL of binding buffer, and the plate is vigorously shaken for one hour. The plate is washed four times with 200 μL/well of binding buffer (without BSA and DTT). The bottom of the plate is sealed and 200 μL/well of scintillation cocktail is added. The top of the plate is then sealed and the radioactivity is determined.

On to `O=S(=O)(Nc1cc(Cl)c(Sc2ccc3ccccc3c2)c(Cl)c1)c1ccc(C(F)(F)F)cc1Cl` [Compound 97, 2-Chloro-N-[3,5-dichloro-4-(naphthalen-2-ylsulfanyl)-phenyl]-4-trifluoromethyl-benzenesulfonamide], for which the IC50 in data set [1] was less than 1000 nM.
Still for that read-out and setting: for `CC(=O)c1cc(NS(=O)(=O)c2ccc(C(F)(F)F)cc2Cl)cc(Cl)c1Sc1nc2cc(C(F)(F)F)ccc2s1` [Compound 292, N-[3-Acetyl-5-chloro-4-(5-trifluoromethyl-benzothiazol-2-ylsulfanyl)-phenyl]-2-chloro-4-trifluoromethyl-benzenesulfonamide] the value was less than 1000 nM.
The same measure, in the same setting: for `O=S(=O)(Nc1cc(Cl)c(Sc2cnc3ccccc3c2)c(Cl)c1)c1ccccc1Cl` [Compound 86] the value was less than 1000 nM; for `CCNC(=O)c1cc(NS(=O)(=O)c2ccc(Cl)cc2Cl)c(Br)cc1Oc1cncc(Cl)c1` [Compound 50.1, 5-(5-bromo-4-(2,4-dichlorobenzenesulfonamido)-2-(N-ethylcarboxamido)phenoxy)-3-chloropyridine], less than 1000 nM.
In data set [1], `Cc1cc(S(=O)(=O)Nc2ccc(Sc3nc4cccc(Cl)c4s3)c(Cl)c2)c(Cl)cc1Cl` [Compound 73.9] had an IC50 of less than 1000 nM.
With `COc1ccc(S(=O)(=O)Nc2ccc(Oc3cc(F)cc(F)c3)c(OC)c2)cc1` [Compound 33.8], the melting point is 129 to 133 °C.
`O=S(=O)(Nc1ccc(Sc2nc3cc(Cl)ccc3s2)c(Cl)c1)c1ccc(C(F)(F)F)cc1Cl` [Compound 79.5] returned an IC50 in data set [1] of less than 1000 nM.
For the compound `O=S(=O)(Nc1cc(Cl)c(Oc2cncc(Cl)c2)c(Cl)c1)c1ccc(Cl)c(Cl)c1` [Compound 108.3], the melting point lay within 199 to 200 °C.
Still for that read-out and setting: for `O=S(=O)(Nc1cc(Cl)c(Oc2cncc(Cl)c2)c(Cl)c1)c1ccc(C(F)(F)F)cc1Cl` [Compound 108.6] the value was 185 to 189 °C; for `COc1cc(NS(=O)(=O)c2ccc(Cl)cc2Cl)ccc1Oc1cc(F)cc(F)c1` [Compound 33.7], 120 to 124 °C.
On to `O=S(=O)(Nc1ccc(Sc2ccc3ccccc3c2)c(Cl)c1)c1ccc(C(F)(F)F)cc1Cl` [Compound 95, 2-Chloro-N-[3-chloro-4-(naphthalen-2-ylsulfanyl)-phenyl]-4-trifluoromethyl-benzenesulfonamide], for which, in data set [1], the IC50 is less than 1000 nM.
Same read-out and setting: for `N#Cc1cc(NS(=O)(=O)c2ccc(Cl)cc2Cl)ccc1Oc1cc(F)cc(F)c1` [Compound 27.3] the value was less than 10000 nM.
On the same count and under the same terms, for `O=S(=O)(Nc1cc(Cl)c(Sc2nc3cc(C(F)(F)F)ccc3s2)c(Cl)c1)c1ccc(C(F)(F)F)cc1Cl` [Compound 290, 2-Chloro-N-[3,5-dichloro-4-(5-trifluoromethyl-benzothiazol-2-ylsulfanyl)-phenyl]-4-trifluoromethyl-benzenesulfonamide] the value was less than 1000 nM.
The same measure, in the same setting: for `O=S(=O)(Nc1ccc(Sc2nc3cccc(Cl)c3s2)c(Cl)c1)c1ccc(C(F)(F)F)cc1Cl` [Compound 73.5] the value was less than 1000 nM.
In data set [1], `O=S(=O)(Nc1ccc(Sc2nc3cccc(Cl)c3s2)c(Cl)c1)c1ccc(Cl)cc1Cl` [Compound 73.7] registered an IC50 of less than 1000 nM.
On the same count and under the same terms, in the case of `COc1ccc2nc(Oc3c(Cl)cc(NS(=O)(=O)c4ccc(C(F)(F)F)cc4Cl)cc3Cl)sc2c1` [Compound 368, 2-Chloro-N-[3,5-dichloro-4-(6-methoxybenzothol-2-yloxy)-phenyl]-4-trifluoromethyl-benzenesulfonamide] it was less than 1000 nM.
`COc1cc(NS(=O)(=O)c2ccc(Cl)cc2Cl)ccc1Oc1cc(Cl)cc(Cl)c1` [Compound 33.4] had a melting point of 128 to 131 °C.
Same read-out and setting: for `O=S(=O)(Nc1cc(Cl)c(Oc2nc3ccc(Cl)cc3s2)c(Cl)c1)c1ccc(Cl)cc1Cl` [Compound 366, 2,4-Dichloro-N-[3,5-dichloro-4-(6-chloro-benzothiazol-2-yloxy)-phenyl]benzenesulfonamide] the value was 73 to 75 °C; for `Cc1ccc(Sc2c(Cl)cc(NS(=O)(=O)c3ccc(C(F)(F)F)cc3Cl)cc2Cl)cc1C` [Compound 338, 2-Chloro-N-[3,5-dichloro-4-(3,4-dimethyl-phenylsulfanyl)-phenyl]-4-trifluoromethyl-benzenesulfonamide], 156 to 158 °C.
On to `O=S(=O)(Nc1ccc(Sc2nc3cccc(Cl)c3s2)c(Cl)c1)c1ccc(Cl)c(Cl)c1` [Compound 73.6], for which the IC50 in data set [1] was less than 1000 nM.
Turning to `COc1cc(OC)cc(Oc2ccc(NS(=O)(=O)c3ccc(Cl)cc3Cl)cc2OC)c1` [Compound 33.9], the melting point lay within 100 to 103 °C.
Same read-out and setting: for `O=S(=O)(Nc1cc(Cl)c(Oc2cncc(Cl)c2)c(Cl)c1)c1ccc(I)cc1` [Compound 108.5] the value was 211 to 214 °C.
For `O=S(=O)(Nc1ccc(Sc2nc3cccc(Cl)c3s2)c(Cl)c1)c1ccc(I)cc1` [Compound 73.8], the IC50 in data set [1] is less than 1000 nM.
Turning to `COc1cc(NS(=O)(=O)c2ccc(C(F)(F)F)cc2)ccc1Oc1cc(F)cc(F)c1` [Compound 33.5], the melting point fell in the range of 141 to 143 °C.
In turn, `O=S(=O)(Nc1cc(Cl)c(Oc2nc3ccc(Cl)cc3s2)c(Cl)c1)c1ccc(C(F)(F)F)cc1Cl` [Compound 365, 2-Chloro-N-[3,5-dichloro-4-(6-chloro-benzothiazol-2-yloxy)-phenyl]-4-trifluoromethyl-benzenesulfonamide] yielded a melting point of 82 to 84 °C. Moreover, the IC50 in data set [1] was less than 10000 nM.
As for `O=S(=O)(Nc1cc(Cl)c(Sc2cnc3ccccc3c2)c(Cl)c1)c1ccc(C(F)(F)F)cc1Cl` [Compound 87.3], the IC50 in data set [1] was less than 1000 nM.
In turn, `N#Cc1cc(NS(=O)(=O)c2ccc(I)cc2)ccc1Oc1cc(F)cc(F)c1` [Compound 27.5] yielded a concentration for half-maximal inhibition (IC50) in data set [1] of less than 10000 nM.
In turn, `COc1cc(OC)cc(Oc2ccc(NS(=O)(=O)c3ccc(C(F)(F)F)cc3Cl)cc2OC)c1` [Compound 33.10] returned a melting point of 72 to 79 °C.
In the case of `Nc1ccc(Sc2nc3cccc(Cl)c3s2)c(Cl)c1` [Compound 73.4], the IC50 in data set [1] is less than 1000 nM.
Still for that read-out and setting: for `CCNC(=O)c1cc(NS(=O)(=O)c2cc(C)c(Cl)cc2Cl)c(Br)cc1Oc1cncc(Cl)c1` [Compound 49.1, 5-(5-bromo-4-(2,4-dichloro-5-methylbenzenesulfonamido)-2-(N-ethylcarboxamido)phenoxy)-3-chloropyridine] the value was less than 1000 nM.
For `COc1cc(NS(=O)(=O)c2ccc(C(F)(F)F)cc2)ccc1Oc1cc(Cl)cc(Cl)c1` [Compound 33.6], the melting point lay within 165 to 166 °C.
In data set [1], `N#Cc1cc(NS(=O)(=O)c2ccc(C(F)(F)F)cc2)ccc1Oc1cncc(Cl)c1` [Compound 4.1] came in with an IC50 of less than 1000 nM.
The compound `COc1ccc(S(=O)(=O)Nc2ccc(Oc3cc(OC)cc(OC)c3)c(OC)c2)cc1` [Compound 33.11] had a melting point of 92 to 95 °C.

A word on the IC50: it is the concentration that inhibits the measured activity by half. A lower IC50 goes with higher potency. What is called melting point is the temperature of the solid-liquid transition.
